Results from patent publication EP0698025B1, “AMPA ANTAGONISTS AND A METHOD OF TREATMENT THEREWITH” (NEUROSEARCH A/S, priority 1993, dated 1994).

Assays:
AMPA receptor = AMPA receptor binding affinity (as described by T. Honoré et al., Neuroscience Letters 54, 27-32 (1985)); conditions: binding affinity for the AMPA receptor
[1] = test system: AMPA-induced clonic seizures; assay: In vivo AMPA seizure test (AMPA-induced clonic seizures); set-up: species or system female NMRI mice; conditions: Mus musculus; dose inhibiting 50% of the mice from having clonic seizures; test compound i.v. 5 min (or p.o. 30 min) before 0.3 µg icv AMPA; route not given
Procedure: Also compounds of the present invention when adminestered i.v. or i.p. in the in vivo AMPA seizure test as described below inhibit the clonic seizures induced by AMPA.
AMPA given icv (intracerebroventricular) (15 µg/kg) NMRI to mice induces clonic seizures which should be inhibited by non-NMDA receptor antagonists. Method: Test compound was given i.v. 5 min (or p.o. 30 min) before a 0.3 µg icv administration of AMPA to 10 female NMRI mice (weighing 24-26 g) per dose. The number of mice experiencing clonic seizures within the next 5 min was noted. An ED50 value was calculated as the dose inhibiting 50% of the mice from having clonic seizures.

Row | IC50 (AMPA receptor) | Compound | ED50 [1]
1 | 600 nM | CN1Cc2c(-c3ccc([N+](=O)[O-])cc3)cc3[nH]c(=O)c(=O)[nH]c3c2C1 [Compound 3] | –
2 | 200 nM | CN1CCc2c(-c3ccccc3)cc3c(c2C1)NC(=O)C3=NO [Compound 9, 8-methyl-5-phenyl-6,7,8,9-tetrahydro-1H-pyrrolo[3,2-h]isoquinoline-2,3-dione 3-oxime] | –
3 | 150 nM | CN1CCc2c(-c3ccc([N+](=O)[O-])cc3)cc3c(c2C1)NC(=O)C3=NO [Compound 10, 8-methyl-5-(4-nitrophenyl)-6,7,8,9-tetrahydro-1H-pyrrolo[3,2-h]isoquinoline-2,3-dione 3-oxime] | 5 mg/kg
4 | 100 nM | CCN1Cc2c(-c3ccccc3)cc3c(c2C1)NC(=O)C3=NO [Compound 13] | –
